Data on 7 compounds can be found in ChEMBL document CHEMBL5154770, “Discovery of novel ataxia telangiectasia mutated (ATM) kinase modulators: Computational simulation, biological evaluation and cancer combinational chemotherapy study” (Eur J Med Chem, 2022).

The test system of one data set is HEK293. Nature of the data set: Cytotoxicity against human HEK293 cells at 100 uM. The data set is classed as toxicity, cell-based. The conditions noted are these: hek293, 100 µM.
For the next data set, the system named is MDCK. The data set is described as follows: Cytotoxicity against dog MDCK cells at 100 uM. The data set is classed as toxicity, cell-based, Canis lupus familiaris.
Data set [1] has as its system MCF7. The data set is described as follows: Antiproliferative activity against human MCF7 cells measured after 2 days by SRB assay. Type of data set: functional, cell-based. The conditions noted are these: MCF7, 48 h.
Data set [2] has as its system SW480. Nature of the data set: Antiproliferative activity against human SW480 cells measured after 3 days by SRB assay. As to conditions: SW480, 72 h. The data set is classed as functional, cell-based. (In general: Sulforhodamine B stains cellular protein and so reports cell mass.)
Data set [3] has as its system MCF7. Nature of the data set: Antiproliferative activity against human MCF7 cells measured after 6 days by SRB assay. Type of data set: functional, cell-based. As to conditions: MCF7, 144 h.
For data set [4], the system named is SW480. Nature of the data set: Antiproliferative activity against human SW480 cells measured after 9 days by SRB assay. Type of data set: functional, cell-based. The conditions noted are these: SW480, 216 h.
The target in data set [5] is T1, Serine-protein kinase ATM (Homo sapiens, UniProt Q13315). The data set is described as follows: Activation of ATM in human MCF7 cells assessed as increase in pKAP-1 level at 0.001 to 100 uM measured by In-cell western assay. As to conditions: filed as activator, dose 0.001-100 µM. The data set is classed as cell-based.
T1 sequence (Q13315 whole entry): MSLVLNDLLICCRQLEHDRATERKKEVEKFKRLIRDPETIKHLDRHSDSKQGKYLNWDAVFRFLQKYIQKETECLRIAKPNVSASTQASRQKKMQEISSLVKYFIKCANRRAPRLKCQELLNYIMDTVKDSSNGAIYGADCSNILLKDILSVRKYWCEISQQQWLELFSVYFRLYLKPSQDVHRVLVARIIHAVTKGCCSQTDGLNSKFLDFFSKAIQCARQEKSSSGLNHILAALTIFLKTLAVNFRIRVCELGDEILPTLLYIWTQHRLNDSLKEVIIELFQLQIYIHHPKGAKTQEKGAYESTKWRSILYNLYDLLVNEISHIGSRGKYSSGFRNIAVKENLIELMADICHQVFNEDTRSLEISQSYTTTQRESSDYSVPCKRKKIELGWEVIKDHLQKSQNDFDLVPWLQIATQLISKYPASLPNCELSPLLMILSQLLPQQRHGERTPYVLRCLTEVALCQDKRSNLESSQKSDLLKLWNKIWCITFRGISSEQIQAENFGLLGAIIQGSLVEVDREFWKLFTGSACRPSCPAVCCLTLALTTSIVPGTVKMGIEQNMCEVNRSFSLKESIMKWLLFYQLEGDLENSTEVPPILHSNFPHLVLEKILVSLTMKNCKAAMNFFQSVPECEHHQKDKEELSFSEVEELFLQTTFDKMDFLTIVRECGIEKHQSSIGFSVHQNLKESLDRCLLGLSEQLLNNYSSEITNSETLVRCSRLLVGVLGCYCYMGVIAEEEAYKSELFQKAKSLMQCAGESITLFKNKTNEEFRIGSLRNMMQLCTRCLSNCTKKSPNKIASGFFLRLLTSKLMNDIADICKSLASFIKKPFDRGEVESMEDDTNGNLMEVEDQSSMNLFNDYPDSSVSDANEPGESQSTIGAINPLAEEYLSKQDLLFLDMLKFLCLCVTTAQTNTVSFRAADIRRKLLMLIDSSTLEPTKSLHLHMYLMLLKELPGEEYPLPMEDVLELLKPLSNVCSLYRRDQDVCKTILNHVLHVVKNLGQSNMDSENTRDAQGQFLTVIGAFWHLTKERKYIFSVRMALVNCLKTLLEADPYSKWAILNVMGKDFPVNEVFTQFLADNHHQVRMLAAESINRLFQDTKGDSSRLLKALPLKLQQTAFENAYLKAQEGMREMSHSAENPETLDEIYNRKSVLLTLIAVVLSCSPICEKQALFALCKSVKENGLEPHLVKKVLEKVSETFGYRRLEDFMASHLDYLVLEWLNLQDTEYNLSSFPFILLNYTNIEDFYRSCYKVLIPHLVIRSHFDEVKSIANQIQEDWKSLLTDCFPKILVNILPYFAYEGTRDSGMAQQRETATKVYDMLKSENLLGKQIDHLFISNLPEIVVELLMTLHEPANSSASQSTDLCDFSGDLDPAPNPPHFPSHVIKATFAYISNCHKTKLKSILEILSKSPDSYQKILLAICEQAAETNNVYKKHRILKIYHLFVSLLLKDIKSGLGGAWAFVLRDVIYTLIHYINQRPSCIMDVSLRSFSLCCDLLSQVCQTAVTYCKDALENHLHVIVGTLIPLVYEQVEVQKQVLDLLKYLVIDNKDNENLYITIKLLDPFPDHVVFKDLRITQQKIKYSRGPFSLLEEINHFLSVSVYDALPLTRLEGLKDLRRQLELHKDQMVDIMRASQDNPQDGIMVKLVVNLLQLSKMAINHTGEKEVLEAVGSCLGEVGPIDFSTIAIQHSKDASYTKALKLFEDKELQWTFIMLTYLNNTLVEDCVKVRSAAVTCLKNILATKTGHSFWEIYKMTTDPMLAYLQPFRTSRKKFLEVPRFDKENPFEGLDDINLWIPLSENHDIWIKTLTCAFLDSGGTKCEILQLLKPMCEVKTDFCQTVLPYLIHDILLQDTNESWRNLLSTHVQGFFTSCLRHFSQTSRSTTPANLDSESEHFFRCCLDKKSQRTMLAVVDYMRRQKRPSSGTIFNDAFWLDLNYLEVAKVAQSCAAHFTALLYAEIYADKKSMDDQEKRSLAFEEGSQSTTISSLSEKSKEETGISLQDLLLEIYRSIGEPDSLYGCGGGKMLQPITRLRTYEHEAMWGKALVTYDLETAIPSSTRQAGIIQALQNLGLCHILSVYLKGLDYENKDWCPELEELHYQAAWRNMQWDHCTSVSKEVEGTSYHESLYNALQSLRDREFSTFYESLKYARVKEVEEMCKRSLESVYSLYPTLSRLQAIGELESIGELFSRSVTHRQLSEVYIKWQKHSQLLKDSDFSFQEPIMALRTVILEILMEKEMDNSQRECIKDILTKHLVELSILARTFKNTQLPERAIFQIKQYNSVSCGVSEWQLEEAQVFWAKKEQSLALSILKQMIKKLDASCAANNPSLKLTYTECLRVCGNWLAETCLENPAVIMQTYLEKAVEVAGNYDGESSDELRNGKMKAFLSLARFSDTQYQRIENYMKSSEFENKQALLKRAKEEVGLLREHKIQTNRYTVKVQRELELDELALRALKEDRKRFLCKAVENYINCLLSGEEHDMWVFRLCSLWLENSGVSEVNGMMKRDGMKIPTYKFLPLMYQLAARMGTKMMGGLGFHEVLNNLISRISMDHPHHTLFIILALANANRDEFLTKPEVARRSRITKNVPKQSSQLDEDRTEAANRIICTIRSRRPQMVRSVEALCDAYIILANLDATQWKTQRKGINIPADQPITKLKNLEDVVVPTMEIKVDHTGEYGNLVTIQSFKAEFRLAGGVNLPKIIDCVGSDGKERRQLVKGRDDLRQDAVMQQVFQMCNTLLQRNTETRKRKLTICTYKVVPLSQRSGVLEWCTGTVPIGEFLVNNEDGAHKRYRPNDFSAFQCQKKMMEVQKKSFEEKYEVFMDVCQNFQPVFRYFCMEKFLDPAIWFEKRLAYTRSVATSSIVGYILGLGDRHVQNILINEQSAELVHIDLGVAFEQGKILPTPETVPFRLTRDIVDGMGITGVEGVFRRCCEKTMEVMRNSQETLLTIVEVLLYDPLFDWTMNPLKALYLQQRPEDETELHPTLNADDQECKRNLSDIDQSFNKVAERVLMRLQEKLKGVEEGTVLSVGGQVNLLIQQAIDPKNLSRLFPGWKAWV
For data set [6], the target named is T1, Serine-protein kinase ATM. Nature of the data set: Activation of ATM in human MCF7 cells assessed as increase in pATM level at 30 uM in presence of 25 uM etoposide measured by western blot analysis. As to conditions: filed as activator. Type of data set: cell-based. (In general: Immunoblotting shows a protein as a band on a membrane.)
Data set [7] has as its target T1, Serine-protein kinase ATM. Nature of the data set: Activation of ATM in human MCF7 cells assessed as increase in pKAP1 level at 30 uM in presence of 25 uM etoposide measured by western blot analysis. Type of data set: cell-based. As to conditions: filed as activator.
For data set [8], the target named is T1, Serine-protein kinase ATM. Nature of the data set: Binding affinity towards ATM (unknown origin) assessed as increase in thermal stability of ATM at 30 uM measured by thermal shift assay.
Data set [9] concerns MCF7. The data set is described as follows: Antiproliferative activity against human MCF7 cells assessed as growth inhibition at 100 uM measured after 2 days by SRB assay. The conditions noted are these: MCF7, 48 h, time 2 day, read-out: GI. Type of data set: functional.
In data set [10] the test system is SW480. Nature of the data set: Antiproliferative activity against human SW480 cells assessed as growth inhibition at 100 uM measured after 3 days by SRB assay. The data set is classed as functional. The conditions noted are these: SW480, 72 h, time 3 day, read-out: GI.
The target in data set [11] is T1, Serine-protein kinase ATM. The data set is described as follows: Competitive inhibition of ATM (unknown origin) measured by ATP-competitive binding assay.
In data set [12] the target is T1, Serine-protein kinase ATM. Nature of the data set: Inhibition of ATM in human MCF7 cells assessed as decrease in pKAP-1 level measured by In-cell western assay. Type of data set: cell-based.
Data set [13] deals with T1, Serine-protein kinase ATM. The data set is described as follows: Inhibition of ATM in human MCF7 cells assessed as increase in pATM level at 12.5 to 18 uM measured by western blot analysis. The data set is classed as cell-based. The conditions noted are these: dose 12.5-18 µM.
In data set [14] the target is T1, Serine-protein kinase ATM. Nature of the data set: Inhibition of ATM in human MCF7 cells assessed as increase in pKAP1 level at 12.5 to 18 uM measured by western blot analysis. Type of data set: cell-based. The conditions noted are these: dose 12.5-18 µM.
Data set [15] is described as follows: Toxicity in BALB/c nude mouse xenografted with human SW480 cells assessed as effect on body weight at 30 mg/kg, iv. The data set is classed as organism-based. As to conditions: in vivo. On the technique in general: A xenograft is tissue or cells of one species grown in another, often human tumour cells in immunodeficient mice.

Molecules are shown by their SMILES. Activity calls are given as the source filed them. The calls are words filed in the database; no cut-off is given here.

One may read the IC50 as the midpoint of a concentration-inhibition curve.

Regarding `O=c1cc(-c2cccc3c2Sc2ccccc2S3)oc(N2CCOCC2)c1` [KU-55933], the Activity result in the data set with HEK293 and in the data set on MDCK was “Non-Toxic” in each case. Also, the IC50 was found to be 24.8 µM in the data set on MCF7 [1] and 26.5 µM in the data set on SW480 [2].
For `C[C@@H]1CN(CC(=O)Nc2ccc3c(c2)Cc2cccc(-c4cc(=O)cc(N5CCOCC5)o4)c2S3)C[C@H](C)O1`, the Activity result with HEK293 and in the data set on MDCK was “Non-Toxic” throughout. Moreover, the IC50 with MCF7 [1] was 11.9 µM; in the data set with SW480 [2] it was 13.3 µM; in the data set with MCF7 [3], 2.8 µM; in the data set on SW480 [4], 3.3 µM.
As for `COc1ccc(C(=O)NC(=S)Nc2cccc(-c3nc4ncccc4o3)c2)cc1Cl`, the result in [5], in data set [6], in data set [7] and in [8] (filed as activator) was Active. The Activity entry in the data set with HEK293 and in the data set on MDCK was “Non-Toxic” in each case. Also, the IC50 in the data set with MCF7 [1] and with SW480 [2] was greater than 100 µM in each case. Besides, the inhibition of growth at 100 µM in the data set on MCF7 [9] and in the data set with SW480 [10] was less than 20% throughout.
`CNC(=O)c1ccc(-c2cnc3cnc(-c4ccccc4)cn23)cc1` showed an IC50 in [11] of 0.31 µM.
As to `CCN(CC)CCCC(C)Nc1ccnc2cc(Cl)ccc12` (stereo not drawn) [CHLOROQUINE], the IC50 was found to be 13.2 µM with MCF7 [1] and 14.7 µM with SW480 [2].
For `CN(C)CCCOc1ccc(-c2ccc3ncc4c(c3c2)n(C2CCOCC2)c(=O)n4C)cn1`, the Activity entry in the data set on HEK293 and in the data set with MDCK was “Non-Toxic” in each case. The results for the IC50 with MCF7 [1] and in the data set with SW480 [2] were 0.6 µM and 1.1 µM, respectively.
For `OCCNCc1c(OCc2ccc(Cl)cc2Cl)ccc2ccccc12`, the IC50 in data set [12] amounted to 33.4 µM; with MCF7 [1], 6.3 µM; with SW480 [2] it was 4.9 µM; in the data set with MCF7 [3] it was 21.3 µM; in the data set on SW480 [4] it was 5.5 µM. The inhibition entry in data set [13] and in [14] was “Active” throughout. Moreover, the result in data set [8] was Active. The Activity result (in the data set with HEK293; in the data set with MDCK; in [15]) was “Non-Toxic” each time.
